Where two headings read alike, the source gives them in different places.
Key:
carrageenan paw edema = assay: Carrageenan paw edema, anti-inflammatory activity; assay type: in vivo, Wistar rats; conditions: for efficacy in rat carrageenan paw edema vs reference drugs: p.o., compared with Ketoprofen and Flurbiprofen; for ANTI-INFLAM. ACTIVITY (power ratio relative to the corresponding acid): carrageenan paw edema, Wistar rats, mean of 10 animals
Experimental: (§1) The anti-inflammatory and anti-platelet aggregation activity as well as the gastrointestinal ulcerogenicity, for instance of nitric esters having the following formulae, were tested by means of biological studies: [drawing 16]
The anti-inflammatory activity of said nitric esters was determined in Wistar rats utilizing the method of the carrageenan paw edema, as reported in C. A. WINTER, E. RISLEY, G. W. NUSS, Proc. Soc. Exp. Biol. Med. 111,544 (1962), while the anti-platelet aggregation activity of said derivatives was determined on human platelets stimulated by arachidonic acid, according to the method described by V. BERTELE et al., Science 220,517 (1983).
(§2) The anti-inflammatory and anti-platelet aggregation activity as well as the gastrointestinal ulcerability activity of said derivatives are given on Table 1, and are expressed, for each nitric ester indicated, as the power ratio relative to the corresponding acids non functionalized according to the general formula (I), according to this invention. Each value represents the mean of the values obtained by the treatment of 10 animals.

adjuvant arthritis = assay: Rat adjuvant arthritis; assay type: in vivo; conditions: 3 mg/kg p.o., 19 consecutive days (days 3 through 21 after adjuvant injection), compared to controls
phenylquinone writhing = assay: Mouse phenylquinone writhing; assay type: in vivo; conditions: 3 to 10 mg/kg p.o.
[1] = system: prostaglandin E2 in exudate; assay: Prostaglandin synthesis in the inflammatory exudate (carrageenan sponge); assay type: in vivo; conditions: for inhibition at 20 mg/kg: po, read-out: inhibition of the formation of prostaglandin E2 in exudate
From the text: PROSTAGLANDIN SYNTHESIS IN THE INFLAMMATORY EXUDATE.
Subcutaneous implantation of carrageenan sponge elicits the infiltration of inflammatory cells, as reported in Nature 284, 271 (1980). […]

[2] = system: prostaglandin E2 synthesis (gastric); assay: Gastric prostaglandin synthesis; assay type: in vivo; conditions: for inhibition of gastric prostaglandin E2 synthesis: at the highest dose (5-20 mg/kg p.o.)
[3] = system: plasma nitrate/nitrite levels; assay: NO release: plasma nitrate/nitrite levels; assay type: in vivo; conditions: for increase of plasma nitrate/nitrite levels: one hour after the administration; for effect on plasma nitrate/nitrite levels: reference compounds
[4] = system: leukocyte adherence to mesenteric post-capillary venules; assay: Gastric leukocyte adherence/vessel diameter (intravital microscopy); assay type: in vivo; conditions: for blood pressure: one hour period after administration
From the text: GASTRIC LEUKOCYTE ADHERENCE/VESSEL DIAMETER. […] J. Physiol.

[5] = system: central nervous, autonomic, cardiovascular, respiratory and gastrointestinal systems; assay: General (secondary) pharmacology; assay type: in vivo; conditions: in comparison with Ketoprofen or Flurbiprofen
in vivo = assay type: in vivo; conditions: in vivo, read-out: maximum tolerated dose: highest oral dose without apparent symptoms
non rodents = assay: in vivo; assay type: in vivo; conditions: for tolerability in non rodents: increasing oral doses up to 30 mg/kg, preliminary; for mortality in non rodents: 10 mg/kg, reference compounds
[6] = Rat gastric mucosa injury; conditions: po
gastric mucosa [7] = assay: Rat gastric mucosa injury
[8] = system: collagen-induced platelet aggregation; assay: In vivo platelet aggregation, collagen-induced; conditions: 20 mg/kg p.o. in the rat; for inhibition at 20 mg/kg: Platelet, po, versus controls
From the text: IN VIVO PLATELET AGGREGATION.

gastric mucosa [9] = conditions: rat, in vivo, po
human platelets = assay: Anti-platelet aggregation activity on platelets stimulated by arachidonic acid; assay type: cell-based
Experimental: as §1
The anti-inflammatory activity of said nitric esters was determined in Wistar rats utilizing the method of the carrageenan paw edema, as reported in C. A. WINTER, E. RISLEY, G. W. NUSS, Proc. Soc.
as §2

[10] = system: gastrointestinal ulcerogenicity; assay: Gastrointestinal ulcerability after oral administration; assay type: in vivo, rat
Experimental: as §1
The gastrointestinal ulcerability was evaluated by oral administration in the rat.
as §2

mouse = assay: Preliminary acute toxicity in the mouse by two administration routes; assay type: in vivo; conditions: oral or intraperitoneal doses of 300 mg/kg
[11] = prior to and during one hour after administration, intravital microscopy
[12] = oral administration in the rat, ratio to corresponding acid, mean of 10 animals

## CC(C(=O)OCCCCO[N+](=O)[O-])c1ccc(-c2ccccc2)c(F)c1 (stereo not drawn) [(XII), nitric ester of 2-fluoro-alpha-methyl-4-diphenyl acetate of 4-hydroxybutyl]
Carrageenan paw edema
  efficacy in rat carrageenan paw edema vs reference drugs: efficacy comparable with the corresponding reference drugs
Adjuvant arthritis
  reduction in the arthritic symptomatology: significant and comparative reduction in the arthritic symptomatology
Phenylquinone writhing
  efficacy in phenylquinone writhing: fully effective
[1]
  inhibition at 20 mg/kg: > 75%
[2]
  inhibition of gastric prostaglandin E2 synthesis: more than 90%
[3]
  increase of plasma nitrate/nitrite levels: more than 50%
[4]
  blood pressure: No changes in blood pressure were observed
[4]; [11]
  diameter of vessels: increasing the diameter of vessels significantly
  leukocyte adherence to post-capillary venules: did not induce significant leukocyte adherence
[5]
  additional adverse reactions (secondary pharmacological evaluation): No relevant additional adverse reactions were observed
In vivo; oral, non rodents, increasing doses up to 30 mg/kg, preliminary
  MTD: ≥ 30 mg/kg
Non rodents
  tolerability in non rodents: very well tolerated
[6]; in vivo
  NOAEL: ≥ 30 mg/kg

## CC(C(=O)O)c1cccc(C(=O)c2ccccc2)c1 (stereo not shown) [Ketoprofen, 2-(3-benzoylphenyl)propionic acid, reference compound]
[3]
  effect on plasma nitrate/nitrite levels: did not affect plasma nitrate/nitrite levels significantly
[4]; [11]
  leukocyte adherence to post-capillary venules: Unlike Ketoprofen or Flurbiprofen, (XVIII) or (XII) did not induce significant leukocyte adherence
Non rodents
  mortality in non rodents: caused the death of the animals
Gastric mucosa [7]; 3 to 30 mg/kg p.o.
  severity of gastric damages: dose-dependent
Gastric mucosa [7]; p.o.
  dose causing the onset of gastric damages: ≤ 3 mg/kg

## CC(C(=O)O)c1ccc(-c2ccccc2)c(F)c1 (stereo not shown) [Flurbiprofen, reference compound]
[8]
  inhibition at 20 mg/kg: 40%
[3]
  effect on plasma nitrate/nitrite levels: did not affect plasma nitrate/nitrite levels significantly
[4]; in vivo
  leukocyte adherence to post-capillary venules: Unlike Ketoprofen or Flurbiprofen, (XVIII) or (XII) did not induce significant leukocyte adherence
Non rodents
  mortality in non rodents: caused the death of the animals
Gastric mucosa [9]
  dose causing the onset of gastric damages: ≤ 3 mg/kg

## CCC(C(=O)O)c1ccc(N2Cc3ccccc3C2=O)cc1 (stereo not shown) [Indobufen, reference compound]
Carrageenan paw edema
  ANTI-INFLAM. ACTIVITY (power ratio relative to the corresponding acid): 1
Human platelets
  ANTI-AGGREG. ACTIVITY (power ratio relative to the corresponding acid): 1
[10]; [12]
  GASTRO-INTESTINAL ULCERABILITY (power ratio relative to the corresponding acid): 1

## CC(C(=O)OCCCCO[N+](=O)[O-])c1ccc(C(=O)c2cccs2)cc1 (stereo not shown) [(XXIV)]
Carrageenan paw edema
  ANTI-INFLAM. ACTIVITY (power ratio relative to the corresponding acid): 1,20
Human platelets
  ANTI-AGGREG. ACTIVITY (power ratio relative to the corresponding acid): 1,30
[10]; [12]
  GASTRO-INTESTINAL ULCERABILITY (power ratio relative to the corresponding acid): 0,35

## CCc1cccc2c3c([nH]c12)C(CC)(CC(=O)OCCCCO[N+](=O)[O-])OCC3 (stereo not shown) [(XXVI)]
Carrageenan paw edema
  ANTI-INFLAM. ACTIVITY (power ratio relative to the corresponding acid): 1,40
Human platelets
  ANTI-AGGREG. ACTIVITY (power ratio relative to the corresponding acid): 1,10
[10]; [12]
  GASTRO-INTESTINAL ULCERABILITY (power ratio relative to the corresponding acid): 0,33

## CCC(C(=O)OCCCCO[N+](=O)[O-])c1ccc(N2Cc3ccccc3C2=O)cc1 (stereo not shown) [(XXV)]
Carrageenan paw edema
  ANTI-INFLAM. ACTIVITY (power ratio relative to the corresponding acid): 1,05
Human platelets
  ANTI-AGGREG. ACTIVITY (power ratio relative to the corresponding acid): 1,25
[10]; [12]
  GASTRO-INTESTINAL ULCERABILITY (power ratio relative to the corresponding acid): 0,30

## CC(C(=O)O)c1ccc(C(=O)c2cccs2)cc1 (stereo not shown) [Suprofen, reference compound]
Carrageenan paw edema
  ANTI-INFLAM. ACTIVITY (power ratio relative to the corresponding acid): 1
Human platelets
  ANTI-AGGREG. ACTIVITY (power ratio relative to the corresponding acid): 1
[10]; rat, in vivo, po
  GASTRO-INTESTINAL ULCERABILITY (power ratio relative to the corresponding acid): 1

## CC(C(=O)OCCCCO[N+](=O)[O-])c1cccc(C(=O)c2ccccc2)c1 (stereo not shown) [(XVIII), nitric ester of 2-(3-benzoilphenyl)propionate of 4-hydroxybutyl]
Carrageenan paw edema
  ANTI-INFLAM. ACTIVITY (power ratio relative to the corresponding acid): 1,25
  efficacy in rat carrageenan paw edema vs reference drugs: efficacy comparable with the corresponding reference drugs
Human platelets
  ANTI-AGGREG. ACTIVITY (power ratio relative to the corresponding acid): 1,35
[10]; [12]
  GASTRO-INTESTINAL ULCERABILITY (power ratio relative to the corresponding acid): 0,20
Adjuvant arthritis
  reduction in the arthritic symptomatology: significant and comparative reduction in the arthritic symptomatology
Phenylquinone writhing
  efficaciousness in phenylquinone writhing relative to reference compounds: almost comparable with that of the corresponding reference compounds
  efficacy in phenylquinone writhing: fully effective
[8]
  inhibition of platelet aggregation, comparison with Flurbiprofen: significantly more effective than the latter
  inhibition at 20 mg/kg: 66%
[1]; 20 mg/kg p.o., vs Ketoprofen and Flurbiprofen
  efficacy on exudate prostaglandin E2 relative to reference compounds: comparative efficacy to the corresponding reference compounds
[1]; 20 mg/kg p.o., compared with controls
  inhibition at 20 mg/kg: > 75%
[2]; 5-20 mg/kg p.o., vs Ketoprofen and Flurbiprofen
  inhibition of gastric prostaglandin E2 synthesis relative to reference compounds: inhibited significantly and comparatively to the corresponding reference compounds
[2]
  inhibition of gastric prostaglandin E2 synthesis: more than 90%
[3]
  increase of plasma nitrate/nitrite levels: more than 50%
[4]
  blood pressure: No changes in blood pressure were observed
[4]; [11]
  diameter of vessels: increasing the diameter of vessels significantly
  leukocyte adherence to post-capillary venules: did not induce significant leukocyte adherence
[5]
  additional adverse reactions (secondary pharmacological evaluation): No relevant additional adverse reactions were observed
mouse
  acute toxicity: No evident toxicity was observed
In vivo; po
  MTD: ≥ 30 mg/kg
Non rodents
  tolerability in non rodents: very well tolerated
[6]; gastric mucosa
  NOAEL: ≥ 30 mg/kg
Gastric mucosa [7]; 3 to 30 mg/kg p.o.
  gastric tolerability relative to reference compounds: significantly better tolerated than reference compounds
